Results published in the NIST ThermoML archive (doi:10.1016/j.jct.2010.10.016).
Numbers after ± are expanded uncertainties.

Test: relative permittivity at various frequencies (dimensionless); xn = mol fraction of the nth substance listed
Conditions: 101 kPa, Liquid, Frequency=3 MHz, AC method

CCCCOCCO [2-butoxyethan-1-ol] + C[N+](=O)[O-]
relative permittivity
Conditions	293.15 K	298.15 K	303.15 K	308.15 K	313.15 K
x2 = 0	9.78 ± 0.04	9.35 ± 0.04	8.88 ± 0.04	8.39 ± 0.04	7.91 ± 0.04
x2 = 0.05	12.57 ± 0.05	11.95 ± 0.05	11.28 ± 0.05	10.61 ± 0.05	9.96 ± 0.05
x2 = 0.0999	14.98 ± 0.05	14.28 ± 0.05	13.54 ± 0.05	12.78 ± 0.05	12.04 ± 0.05
x2 = 0.2	19.71 ± 0.05	18.87 ± 0.05	18 ± 0.05	17.16 ± 0.05	16.23 ± 0.06
x2 = 0.3	24.36 ± 0.06	23.34 ± 0.06	22.34 ± 0.06	21.34 ± 0.06	20.28 ± 0.06
x2 = 0.4	28.77 ± 0.06	27.63 ± 0.06	26.37 ± 0.06	25.27 ± 0.06	24.13 ± 0.06
x2 = 0.5	32.64 ± 0.06	31.38 ± 0.07	29.98 ± 0.07	28.79 ± 0.06	27.65 ± 0.07
x2 = 0.6	35.72 ± 0.06	34.44 ± 0.07	32.99 ± 0.07	31.85 ± 0.06	30.75 ± 0.07
x2 = 0.7001	38.28 ± 0.06	36.93 ± 0.07	35.47 ± 0.07	34.31 ± 0.06	33.16 ± 0.07
x2 = 0.8	40.28 ± 0.05	38.93 ± 0.07	37.36 ± 0.07	36 ± 0.07	34.68 ± 0.08
x2 = 0.9005	40.93 ± 0.05	39.67 ± 0.07	37.93 ± 0.07	36.51 ± 0.07	35.07 ± 0.08
x2 = 0.95	39.91 ± 0.05	38.78 ± 0.07	37.3 ± 0.07	36.07 ± 0.06	34.84 ± 0.07

C[N+](=O)[O-] [nitromethane] + COCCO
relative permittivity
Conditions	293.15 K	298.15 K	303.15 K	308.15 K	313.15 K
x1 = 0.05	19.49 ± 0.05	18.95 ± 0.05	18.48 ± 0.05	17.81 ± 0.05	17.21 ± 0.05
x1 = 0.0998	21.49 ± 0.05	20.81 ± 0.05	20.26 ± 0.05	19.57 ± 0.05	18.85 ± 0.05
x1 = 0.2	25.34 ± 0.05	24.57 ± 0.05	23.89 ± 0.05	23.11 ± 0.05	22.12 ± 0.06
x1 = 0.3	29.02 ± 0.05	28.08 ± 0.05	27.27 ± 0.05	26.43 ± 0.06	25.3 ± 0.06
x1 = 0.4	32.43 ± 0.05	31.42 ± 0.06	30.47 ± 0.06	29.45 ± 0.06	28.29 ± 0.06
x1 = 0.5	35.32 ± 0.05	34.24 ± 0.06	33.22 ± 0.06	32.16 ± 0.06	31.09 ± 0.06
x1 = 0.6	37.67 ± 0.06	36.51 ± 0.06	35.49 ± 0.06	34.47 ± 0.06	33.47 ± 0.06
x1 = 0.7	39.53 ± 0.06	38.31 ± 0.06	37.26 ± 0.06	36.18 ± 0.06	35.12 ± 0.07
x1 = 0.8002	40.88 ± 0.05	39.53 ± 0.06	38.38 ± 0.06	37.08 ± 0.07	35.78 ± 0.08
x1 = 0.8999	40.91 ± 0.06	39.5 ± 0.07	38.23 ± 0.07	36.88 ± 0.07	35.27 ± 0.08
x1 = 0.9503	39.82 ± 0.05	38.54 ± 0.07	37.28 ± 0.06	36.1 ± 0.07	34.7 ± 0.07
x1 = 1	37.31 ± 0.05	36.52 ± 0.05	35.66 ± 0.05	34.92 ± 0.05	34.09 ± 0.05
